Data as given in patent US11505548B2, “Heterocyclic compounds and their use for treatment of helminthic infections and diseases” (Celgene Corporation, priority 2019, dated 2022).
Where two headings read alike, the source gives them in different places.

Tested on: Onchocerca gutturosa Adult Male Worms
Test: Onchocerciasis in vitro screening model, worm motility score
Assay type: cell-based
Settings: read-out: O. gutturosa activity level (IC50 or MED)
[1] = Onchocerca gutturosa, Table 1 O. gutturosa, levels A/B/C, motility or MTT readout not specified
[2] = in vitro, Onchocerca gutturosa adult male worms, class A/B/C

Structure (SMILES) | IC50 [1] [nM] | IC50 [2] [nM]
Cc1cccnc1Nc1nc(-c2cnc(OC(C)C)cn2)ns1 [Compound 124, 3-(5-isopropoxy-pyrazin-2-yl)-N-(3-methyl-pyridin-2-yl)-1,2,4-thiadiazol-5-amine] | 200 to 500 | –
CC(C)Oc1cnc(-c2nsc(Nc3ncccc3C(C)C)n2)cc1C(N)=O [Compound 198, 5-isopropoxy-2-(5-(3-isopropylpyridin-2-ylamino)-1,2,4-thiadiazol-3-yl)isonicotin-amide] | – | 500 to 5000
Cc1cccnc1Nc1nc(-c2ccc(OC3CCN(C4CC4)CC3(F)F)cn2)ns1 (centres unmarked) [Compound 83, 3-(5-(1-cyclo-propyl-3,3-difluoro-piperidin-4-yloxy)pyridin-2-yl)-N-(3-methylpyridin-2-yl)-1,2,4-thiadiazol-5-amine] | 200 to 500 | –
COc1cnc(-c2nnc(Nc3ncccc3N(C)C)o2)cn1 [Compound 158, N2-(5-(5-methoxy-pyrazin-2-yl)-1,3,4-oxadiazol-2-yl)-N3,N3-dimethyl-pyridine-2,3-diamine] | 500 to 5000 | –
Cc1cnc(Nc2nc(-c3cc(OC4COC4)ccn3)ns2)c(C(F)(F)F)c1 [Compound 275, N-(5-methyl-3-(trifluoromethyl)pyridin-2-yl)-3-(4-(oxetan-3-yloxy)pyridin-2-yl)-1,2,4-thiadiazol-5-amine] | – | 500 to 5000
Cc1cccnc1-c1nnc(Nc2ccccn2)o1 [Compound 32, 5-(3-methyl-pyridin-2-yl)-N-(pyridin-2-yl)-1,3,4-oxadiazol-2-amine] | 500 to 5000 | –
CC(=O)N(C)c1cc(C(F)F)cnc1Nc1nc(-c2cc3c(cn2)N(C)CC3)ns1 [Compound 330, N-(5-(difluoro-methyl)-2-(3-(1-methyl-2,3-dihydro-1H-pyrrolo[2,3-c]pyridin-5-yl)-1,2,4-thiadiazol-5-ylamino)pyridin-3-yl)-N-methylacetamide] | – | 500 to 5000
CC(C)Oc1ccc(-c2nsc(Nc3ncc(C(F)(F)F)cc3N3CCCC3=O)n2)nc1 [Compound 312, 1-(2-(3-(5-isopropoxypyridin-2-yl)-1,2,4-thiadiazol-5-ylamino)-5-(trifluoromethyl)pyridin-3-yl)pyrrolidin-2-one] | – | 500 to 5000
Cc1ccnc(Nc2nc(-c3ncccc3C)ns2)c1 [Compound 238, 3-(3-methyl-pyridin-2-yl)-N-(4-methyl-pyridin-2-yl)-1,2,4-thiadiazol-5-amine] | – | < 200
c1ccc(-c2ccnc(Nc3nc(-c4ccccn4)no3)c2)cc1 [Compound 246, N-(4-phenyl-pyridin-2-yl)-3-(pyridin-2-yl)-1,2,4-oxadiazol-5-amine] | – | 500 to 5000
CC(C)Oc1cnc(-c2nsc(Nc3ncc(C(C)C)cc3C(F)(F)F)n2)cc1C(N)=O [Compound 221, 5-isopropoxy-2-(5-(5-isopropyl-3-(trifluoromethyl)pyridin-2-ylamino)-1,2,4-thiadiazol-3-yl)iso-nicotinamide] | – | 200 to 500
CC(C)Oc1ccc(-c2nsc(Nc3ncccc3C(=O)N(C)C3CC3)n2)nc1 [Compound 262, N-cyclo-propyl-2-(3-(5-isopropoxy-pyridin-2-yl)-1,2,4-thiadiazol-5-ylamino)-N-methyl-nicotinamide] | – | 500 to 5000
CC(C)Oc1ccc(-c2noc(Nc3ncccc3N(C)C)n2)nc1 [Compound 133, N2-(3-(5-is-opropoxy-pyridin-2-yl)-1,2,4-oxadiazol-5-yl)-N3,N3-dimethyl-pyridine-2,3-diamine] | 500 to 5000 | –
CC(C)Oc1ccc(-c2nsc(Nc3ncc(C(F)(F)F)cc3N(C)C(=O)C3CC3)n2)nc1 [Compound 248, N-(2-(3-(5-isopropoxy-pyridin-2-yl)-1,2,4-thiadiazol-5-ylamino)-5-(trifluoro-methyl)pyridin-3-yl)-N-methylcyclo-propanecarbox-amide] | – | 500 to 5000
c1ccc(-c2nsc(Nc3ccc(N4CCNCC4)cn3)n2)nc1 [Cmpd 4, N-(5-(piperazin-1-yl)pyridin-2-yl)-3-(pyridin-2-yl)-1,2,4-thiadiazol-5-amine] | 500 to 5000 | –
CC(C)Oc1ccc(-c2nsc(Nc3ncccc3N3CCCC3)n2)nc1 [Compound 116, 3-(5-isopropoxy-pyridin-2-yl)-N-(3-(pyrrolidin-1-yl)pyridin-2-yl)-1,2,4-thiadiazol-5-amine] | < 200 | –
Cc1ccnc(-c2nsc(Nc3ncccc3C(F)(F)F)n2)c1 [Compound 37, 3-(4-methyl-pyridin-2-yl)-N-(3-(trifluoro-methyl)pyridin-2-yl)-1,2,4-thiadiazol-5-amine] | < 200 | –
COc1ccc(-c2nsc(Nc3ccc(C(F)(F)F)cn3)n2)nc1 [Compound 209, 3-(5-methoxy-pyridin-2-yl)-N-(5-(trifluoromethyl)pyridin-2-yl)-1,2,4-thiadiazol-5-amine] | – | < 200
COc1ccnc(-c2nnc(Nc3ccc(C(F)(F)F)cn3)s2)c1 [Compound 174, 5-(4-methoxy-pyridin-2-yl)-N-(5-(trifluoromethyl)pyridin-2-yl)-1,3,4-thiadiazol-2-amine] | 200 to 500 | –

Structure (SMILES) | IC50 [1] [nM] | IC50 [2] [nM]
CC(C)Oc1ccc(-c2nsc(Nc3ncccc3N(C)C)n2)nc1 [Compound 56, N2-(3-(5-isoprop-oxypyridin-2-yl)-1,2,4-thiadiazol-5-yl)-N3,N3 - dimethyl-pyridine-2,3-diamine] | 500 to 5000 | –
FC(F)(F)c1ccnc(Nc2nc(-c3ccccn3)no2)c1 [Compound 28, 3-(pyridin-2-yl)-N-(4-(trifluoro-methyl)pyridin-2-yl)-1,2,4-o xadiazol-5-amine] | < 200 | –
c1ccc(-c2ccnc(Nc3nnc(-c4ccccn4)s3)c2)cc1 [Compound 240, N-(4-pheny-lpyridin-2-yl)-5-(pyridin-2-yl)-1,3,4-thiadiazol-2-amine] | – | 500 to 5000
CC(C)Oc1cnc(-c2nsc(Nc3ncccc3C(C)C)n2)cc1C(F)(F)F [Compound 168, 3-(5-isoprop-oxy-4-(trifluoromethyl)pyridin-2-yl)-N-(3-isopropyl-pyridin-2-yl)-1,2,4-thiadiazol-5-amine] | < 200 | –
CC(C)Oc1cnc(-c2nsc(Nc3ncccc3C(=O)N(C)C)n2)cc1C(F)F [Compound 260, 2-(3-(4-(difluoro-methyl)-5-isopropoxy-pyridin-2-yl)-1,2,4-thiadiazol-5-ylamino)-N,N-dimethyl-nicotinamide] | – | 500 to 5000
Cc1cnc(Nc2nc(-c3cc(C(N)=O)c(OC(C)C)cn3)ns2)c(C(F)(F)F)c1 [Compound 252, 5-isopropoxy-2-(5-(5-methyl-3-(trifluoro-methyl)pyridin-2-ylamino)-1,2,4-thiadiazol-3-yl)isonico-tinamide] | – | 500 to 5000
c1ccc(-c2nsc(Nc3ccc(OC4CCOCC4)cn3)n2)nc1 [Cmpd 9, 3-(pyridin-2-yl)-N-(5-(tetrahydro-2H-pyran-4-yloxy)pyridin-2-yl)-1,2,4-thiadiazol-5-amine] | 500 to 5000 | –
CC(=O)N(C)c1cccnc1Nc1nc(-c2ccc(OC(C)C)cn2)ns1 [Compound 157, N-(2-(3-(5-isopropoxy-pyridin-2-yl)-1,2,4-thiadiazol-5-ylamino)pyridin-3-yl)-N-methyl-acetamide] | 500 to 5000 | –
CC(=O)N(C)c1cc(C(F)(F)F)cnc1Nc1nc(-c2cc3c(cn2)NC(=O)C3(C)C)ns1 [Compound 280, N-(2-(3-(3,3-dimethyl-2-oxo-2,3-dihydro-1H-pyrrolo[2,3-c]pyridin-5-yl)-1,2,4-thiadiazol-5-ylamino)-5-(trifluoromethyl)pyridin-3-yl)-N-methylacetamide] | – | 500 to 5000
COc1ccc(-c2noc(Nc3cc(OC4CCOCC4)ccn3)n2)nc1 [Compound 47, 3-(5-methoxy-pyridin-2-yl)-N-(4-(tetrahydro-2H-pyran-4-yloxy)pyridin-2-yl)-1,2,4-oxadiazol-5-amine] | 500 to 5000 | –
CC(=O)N(C)c1cc(C(F)(F)F)cnc1Nc1nc(-c2cc3c(cn2)CCN3C(C)C)ns1 [Compound 304, N-(2-(3-(1-isopropyl-2,3-dihydro-1H-pyrrolo[3,2-c]pyridin-6-yl)-1,2,4-thiadiazol-5-ylamino)-5-(trifluoromethyl)pyridin-3-yl)-N-methylacetamide] | – | < 200
c1ccc(-c2nsc(Nc3ccc(N4CCCC4)cn3)n2)nc1 [Cmpd 8, 3-(pyridin-2-yl)-N-(5-(pyrrolidin-1-yl)pyridin-2-yl)-1,2,4-thiadiazol-5-amine] | < 200 | –
CNC(=O)c1cccnc1Nc1nc(-c2ccc(OC(C)C)cn2)ns1 [Compound 189, 2-(3-(5-isoprop-oxypyridin-2-yl)-1,2,4-thiadiazol-5-ylamino)-N-methyl-nicotinamide] | 500 to 5000 | –
CN(C)c1cccnc1Nc1nc(-c2ccc(OC3CC(F)(F)C3)cn2)ns1 [Compound 136, N2-(3-(5-(3,3-difluorocyclo-butoxy)pyridin-2-yl)-1,2,4-thiadiazol-5-yl)-N3,N3-dimethyl-pyridine-2,3-diamine] | 500 to 5000 | –
Cc1cccnc1N(c1nc(-c2ccc(OC(C)C)cn2)ns1)C(C)C [Compound 138, 3-(5-isoprop-oxypyridin-2-yl)-N-isopropyl-N-(3-methylpyridin-2-yl)-1,2,4-thiadiazol-5-amine] | 500 to 5000 | –
CC(=O)N(C)c1cccnc1Nc1nc(-c2cc3c(cn2)N(C(C)C)CC3)ns1 [Compound 206, N-(2-(3-(1-isopropyl-2,3-dihydro-1H-pyrrolo[2,3-c]pyridin-5-yl)-1,2,4-thiadiazol-5-ylamino)pyridin-3-yl)-N-methylacetamide] | – | 500 to 5000
Cc1cccnc1Nc1nc(-c2ccc(C#N)cn2)ns1 [Compound 278, 6-(5-(3-methylpyridin-2-ylamino)-1,2,4-thiadiazol-3-yl)nicotinonitrile] | – | 500 to 5000
CC(=O)N1CCN(c2ccc(Nc3nc(-c4ccc(OC5CC5)cn4)ns3)nc2)CC1 [Compound 112, 1-(4-(6-(3-(5-cyclopropoxy-pyridin-2-yl)-1,2,4-thiadiazol-5-ylamino)pyridin-3-yl)piperazin-1-yl) ethanone] | 200 to 500 | –
CC(C)Oc1ccc(-c2nnc(Nc3ncccc3N(C)C)o2)nc1 [Compound 132, N2-(5-(5-isopropoxy-pyridin-2-yl)-1,3,4-oxadiazol-2-yl)-N3,N3-dimethyl-pyridine-2,3-diamine] | < 200 | –
